Calls of active or inactive are those of the source. How the calls were made is not given here.
What was measured:
[1] = biological target: T1, High affinity choline transporter 1 (Homo sapiens, UniProt Q9GZV3); assay: human choline transporter blockers, potency – cell-based, 5-point CRC, membrane potential dye, dose response (AID 504840); format: functional
T1 sequence (Q9GZV3 whole entry): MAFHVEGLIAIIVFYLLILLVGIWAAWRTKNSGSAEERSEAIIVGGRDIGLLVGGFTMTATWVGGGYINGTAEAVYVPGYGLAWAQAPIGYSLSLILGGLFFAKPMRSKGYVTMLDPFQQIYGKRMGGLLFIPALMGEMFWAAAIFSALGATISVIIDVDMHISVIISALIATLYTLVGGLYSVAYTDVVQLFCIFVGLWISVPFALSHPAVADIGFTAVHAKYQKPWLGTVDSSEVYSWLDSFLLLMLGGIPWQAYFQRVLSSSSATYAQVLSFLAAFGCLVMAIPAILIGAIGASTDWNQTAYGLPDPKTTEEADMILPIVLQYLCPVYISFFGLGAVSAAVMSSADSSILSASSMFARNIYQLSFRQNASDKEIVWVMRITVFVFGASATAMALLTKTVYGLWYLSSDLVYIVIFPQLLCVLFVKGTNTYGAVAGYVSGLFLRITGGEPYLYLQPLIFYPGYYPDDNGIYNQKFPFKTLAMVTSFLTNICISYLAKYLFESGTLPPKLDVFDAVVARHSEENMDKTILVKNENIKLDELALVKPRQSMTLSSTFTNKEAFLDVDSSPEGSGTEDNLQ

[2] = biological target: T1, High affinity choline transporter 1; assay: human choline transporter blockers, potency – cell-based, 10-point CRC, membrane potential dye, dose response (AID 588401); format: functional;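 further: membrane potential dye fluorescence of choline-evoked depolarization via CHT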

CCc1cccc(C)c1NC(=O)c1ccc(CN2CCc3ccccc3C2)cc1 was tested, and the IC50 [1] was 3.88 µM (active) and the IC50 [2] was 7.94 µM (active).

From ChEMBL document CHEMBL1201862, “PubChem BioAssay data set” (2004)
